According to US20240315987A1, “ORAL CO[…] COMBINED WITH S[…] I[…] FOR USE IN THE TREATMENT, CONTROL OR PREVENTION OF DEPRESSIVE DISORDERS” (N[…] LTD., priority 2020, published 2024):
Where two headings read alike, the source gives them in different places.

How the values were obtained:
[1] = tested on: mice; details: cited from earlier work
[2] = target: T1, α7 nicotinic acetylcholine receptor (Rattus norvegicus, UniProt Q05941); details: cited from earlier work
T1 construct: expressed in transfected cells; host or cells: KXa7R1 cell line (HEK293)

[3] = tested on: Treatment Resistant Depression (TRD); experiment: Example 5 pilot study: combined subcutaneous/IV and oral ketamine in TRD patients; format: in vivo, human; details: for mean MADRS reduction: TRD patients
Procedure: Six patients diagnosed with Treatment Resistant Depression (TRD) received a combined ketamine treatment as outlined below. Their mean age was 53.1 (SD: 9.3). Five of the patients had previously attempted suicide and been admitted to a psychiatric unit. Three patients had received electroconvulsive therapy (ECT).
Five of the patients received oral ketamine of dose range 120-240 mg, (for example three to six capsules of 40 mg/day as described herein), once a week, four days after ketamine subcutaneous (0.5 mg-1.0 mg/kg) was administered once a week.
One patient received ketamine intravenously once a week and oral ketamine twice a week of dose 240 mg (for example, six capsules of 40 mg/day as described herein) each time.
The patients received on average 30.8 weeks (SD:7.7) ketamine subcutaneous-oral treatment and 10.6 weeks (SD: 6.7) ketamine IV-oral treatment.
This pilot study was conducted to explore the safety, tolerability, and potential clinical effectiveness of a treatment with repeated, low-dose oral ketamine capsules.

[4] = tested on: depressive disorder patients; experiment: Example 6: subcut/IV ketamine with supplemental oral dose, then oral only; format: in vivo, human
Procedure: Patients (n=12 patients) were administered a ketamine-based treatment comprising a subcut/IV ketamine dose with a supplemental oral dose (as described herein).

[5] = tested on: Major Depression Disorder (MDD) and Treatment-resistant depression (TRD); details: single IV administration, subanaesthetic dose 0.5 mg/kg; cited from earlier work
[6] = cited from earlier work
[7] = tested on: depression; details: oral, 2019 systematic review; cited from earlier work

T1 sequence (Q05941 23-502): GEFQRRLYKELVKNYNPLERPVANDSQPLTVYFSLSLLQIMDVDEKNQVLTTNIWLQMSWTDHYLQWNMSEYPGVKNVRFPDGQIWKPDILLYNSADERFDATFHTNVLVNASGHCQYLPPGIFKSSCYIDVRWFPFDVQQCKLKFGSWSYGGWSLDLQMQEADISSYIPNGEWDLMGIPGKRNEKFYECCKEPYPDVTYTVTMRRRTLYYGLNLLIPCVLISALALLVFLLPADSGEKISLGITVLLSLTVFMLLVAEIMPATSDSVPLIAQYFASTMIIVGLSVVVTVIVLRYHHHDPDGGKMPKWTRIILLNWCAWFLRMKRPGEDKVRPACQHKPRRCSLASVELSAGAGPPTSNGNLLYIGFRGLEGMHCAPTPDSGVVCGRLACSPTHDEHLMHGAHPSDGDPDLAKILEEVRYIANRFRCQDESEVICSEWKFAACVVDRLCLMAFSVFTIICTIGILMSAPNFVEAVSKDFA

N[C@@]1(c2ccccc2Cl)CCC[C@@H](O)C1=O [(2R,6R)-HNK]
antidepressant-like effects [1]: ketamine-type antidepressant-like effects

NC1(c2ccccc2Cl)CCC=CC1=O (stereo not shown) [dehydronorketamine]
IC50 ([2]; KXa7R1 cell line (HEK293 cells transfected with rat nicotinic acetylcholine receptor genes)): 55 nM | potency as negative allosteric modulator ([2]; KXa7R1 cell line): subanaesthetic and nanomolar potencies

NC1(c2ccccc2Cl)CCCC(O)C1=O (stereo not shown) [hydroxynorketamine]
potency as negative allosteric modulator ([2]; KXa7R1 cell line): subanaesthetic and nanomolar potencies

CNC1(c2ccccc2Cl)CCCCC1=O (stereo not shown) [ketamine, Ketamine]
response and tolerability of the treatment regimens ([3]; after 45 to 75 minutes after dosing): good response and tolerability in all patients | mean MADRS reduction ([3]; between first and last treatment, subcutaneous-oral ketamine treatment): −5.7 (SD: 11.0) | mean MADRS reduction ([3]; intravenous-oral ketamine treatment): −5.7 (SD: 10.0) | duration of significant improvement of cognition ([3]; one patient, ketamine IV once a week and oral ketamine twice a week 240 mg): 24 to 36 h | severity of adverse events ([3]; repeated, low-dose oral ketamine capsules): Most adverse events were moderate and self-limiting | ketamine cravings or urge to use beyond the prescribed period ([3]; six TRD patients): No participant reported ketamine cravings | onset of moderate discomforts or moderate increase of pre-existing discomforts, reports ([3]; six TRD patients): 32 times | positive effects (reduction of suicidal thoughts, improved mood, cognition, increased energy) ([3]; six TRD patients): Most of the participants reported positive effects | premature discontinuation of treatment ([3]; six TRD patients): none of the participants discontinued treatment prematurely | serious side effects ([3]; six TRD patients): No serious side effects occurred | tolerability of treatment with oral ketamine ([3]; six TRD patients): well-tolerated | response to oral ketamine after stopping initial IV or subcutaneous ketamine treatment ([4]; especially oral twice a week at 160-240 mg): respond very well | remission levels after switch to oral only treatment ([4]; n=12 patients, oral only): maintained their remission levels at the same level as when administered the combination treatment | remission via MADRS scores ([4]; n=12 patients, subcut/IV ketamine dose with supplemental oral dose): ~50% | activity at the same concentrations ([2]; KXa7R1 cell line, <1 μM): inactive | duration of antidepressant effect [5]: 4 to 7 days | time to antidepressant action [5]: ≤ 24 h | Bioavailability ([6]; intranasally): 8-50% | time to peak plasma concentrations ([6]; intravenously): within a minute | Bioavailability ([6]; oral route): 17-20% | time to peak plasma concentrations ([6]; orally): 30 min | Bioavailability ([6]; rectally): up to 30% | Bioavailability ([6]; sublingually): up to 30% | antidepressant effects [7]: significant antidepressant effects | tolerability [7]: good overall tolerability

NC1(c2ccccc2Cl)CCCCC1=O (stereo not shown) [norketamine]
potency as negative allosteric modulator ([2]; KXa7R1 cell line): subanaesthetic and nanomolar potencies | plasma levels of metabolite relative to ketamine ([6]; following oral administration of ketamine): three times higher than ketamine
